{
  "source": "patent US20240366540A1",
  "about": "“MITOFUSIN INHIBITORS AND USES THEREOF” (Albert Einstein College of Medicine, priority 2021, published 2024)",
  "key": {"MOLM13 cells": {"system": "MOLM13 cells", "assay": "Caspase 3/7 activation in MOLM13 cells with AMG-176", "type": "cell-based", "conditions": "increasing concentrations of AMG-176 and MFI8", "experimental": "(§1) Caspase-3/7 activation assay. Cells (5×10^3 cells/well) were seeded in a 96-well white plate and treated with MASM7, MFI8. Caspase 3/7 activation was measured after 6 hr by addition of the Caspase-Glo 3/7 reagent according to the manufacturer's protocol (Promega). Luminescence was detected by a F200 PRO microplate reader (TECAN). Caspase assays were performed in at least triplicate and the data normalized to vehicle-treated control wells. Dilutions of MASM7 or MFI8 were performed using a TECAN D300e Digital Dispenser from 10 mM stocks."}, "[1]": {"system": "mitochondrial biogenesis markers", "assay": "Mitochondrial biogenesis markers by q-PCR", "type": "cell-based", "experimental": "Analysis of mitochondrial biogenesis-related genes by q-PCR. Total RNA was extracted by using RNeasy Mini Kit (Qiagen) followed by cDNA synthesis using the SuperScript IV VILO Master Mix (Thermo Scientific), both performed according to the manufacturer's protocol. q-PCR was performed using the following primers: For the q-PCR reaction, Power SYBR Green master mix (Thermo Scientific) was used according to the manufacturer's instructions. […] Rpl39 was used as housekeeping gene and 2^−ΔΔCT method was applied to determine the relative mRNAs expression."}, "MEFs [2]": {"system": "MEFs", "assay": "Cytochrome C release", "type": "cell-based, mouse", "conditions": "6 hrs treatment, cytosolic and mitochondrial fractions", "experimental": "Cytochrome C release. MEFs were seeded in a 10 cm^2 dish and grown at ˜70% confluence. Following 6 hrs treatment with MFI8, cells were harvested and lysed in digitonin buffer [20 mM Hepes, pH 7.2, 10 mM KCl, 5 mM MgCl2, Im MEDTA, 1 mM EGTA, 250 mM sucrose, 0.025% Digitonin (from 5% w/v stock) and complete protease inhibitors (Roche Applied Science)] on ice for 10 min. Then, supernatants were isolated by centrifugation at 15,000×g for 10 min. Mitochondrial pellets solubilized in 1% Triton X-100/PBS for 1 hr at 4° C. Solubilized Pellets were subjected to a 14,000×rpm spin for 10 min. Samples were prepared for western blot analysis and separated by 4-12% NuPage (Life Technologies)."}, "U2OS cells [3]": {"system": "U2OS cells", "assay": "DNA damage, yH2AX immunofluorescence in U2OS", "type": "cell-based", "experimental": "Immunofluorescent analysis and microscopy. Cells were treated with MASM7, MFI8 and or Q-VD-OPh at ˜70% confluence for 6 h. After treatments, cells were washed with PBS and fixed with 4% PFA for 15 min. Then cells were permeabilized with 0.1% Triton X-100 in PBS for 10 min. Cells were blocked with 5% BSA in PBS-T and incubated overnight with primary antibodies as indicated; yH2AX (Sigma; 05-636, 1:100 dilution). After incubation with primary antibodies, cells were washed with PBS and incubated with the appropriate mouse secondary antibody (ThermoFisher Scientific; A-11001) in the blocking solution. After PBS washes, coverslips were dipped in water and mounted on glass slides using Vectashield containing DAPI (Vector laboratories). […] Data were analyzed with ImageJ."}, "U2OS cells [4]": {"system": "U2OS cells", "assay": "Caspase-3/7 activation assay in U2OS cells", "type": "cell-based", "experimental": "as §1"}, "Calu-6 cells": {"system": "Calu-6 cells", "assay": "Cell death (Annexin V) in Calu-6 cells", "type": "cell-based", "conditions": "20 μM, indicated timepoints", "experimental": "Calu-6 cells were treated with MFI8 (20 μM). Cell death was monitored at the indicated timepoints using Annexin V as a readout. Data represent mean (n=3).\n(§2) Cell death assay. Cells (2×10^5 cells/well) were seeded in a 6-well plate and treated with the indicated drugs for 6 hours. Cells were dissociated using Accutase (Thermo Fisher; Cat. #00-4555-56) in order to avoid accidental exposure of phosphatidylserine on the outer plasma membrane. Cell death was evaluated with Dead Cell Apoptosis Kit with Annexin V Alexa Fluor™ 488 & Propidium Iodide (Thermo Fisher; Cat. #V13241) according to manufacturer's protocol. Data was acquired by BD LSRII flow cytometer system using BD FACSDiva software. Data was analyzed by FlowJo (BD)."}, "MEFs [5]": {"system": "MEFs", "assay": "Caspase-3/7 activation assay", "type": "cell-based, mouse", "experimental": "as §1"}, "U2OS cells [6]": {"system": "U2OS cells", "assay": "Mitochondrial fusion in U2OS cells"}, "U2OS cells [7]": {"system": "U2OS cells", "assay": "Cell death with BV6 in U2OS cells", "type": "cell-based", "experimental": "as §2"}, "MEFs [8]": {"system": "MEFs", "assay": "Mitochondrial depolarization assay (TMRE membrane potential)", "type": "cell-based, mouse", "experimental": "Mitochondrial depolarization assay (mtΔΨ). MEFs (10^4 cells/well) were seeded in a 96-well black plate and treated with MASM7 or MFI8 for 6 hrs. Following treatments, cells were stained with 250 nM TMRE (Sigma; Cat. 87917) for 20 min at 37° C. Subsequently, cells were washed with thrice with PBS. Fluorescence intensity was detected by a M100 microplate reader (TECAN, Ex: 540 nm/Em: 579 nm)."}, "BXPC3 cells": {"system": "BXPC3 cells", "assay": "Cell viability, pancreatic cancer cells", "type": "cell-based", "conditions": "BXPC3, 72 hr, Cell titer Glo", "experimental": "(§3) Cell titer Glo was used to measure viability. Cells were treated with MFI8 for 72 hr (n=3, mean±SD).\n(§4) Cell viability assay. Cells (5×10^3 cells/well) were seeded in a 96-well white plate and treated with serial dilutions of MASM7 or MFI8. Cell viability was assayed after 72 hrs by addition of CellTiter-Glo reagent according to the manufacturer's protocol (Promega). Luminescence was measured using a F200 PRO microplate reader (TECAN). Viability assays were performed in at least triplicate and the data normalized to vehicle-treated control wells. Dilutions of MASM7 or MFI8 were performed using a TECAN D300e Digital Dispenser from 10 mM stocks."}, "MEFs [9]": {"system": "MEFs", "assay": "RNA-seq gene expression", "type": "cell-based, mouse", "description": "RNA-seq. Sequencing results were demultiplexed and converted to FASTQ format using Illumina bcl2fastq software. The sequencing reads were adapter and quality trimmed with Trimmomatic and then aligned to the mouse genome (build mm10/GRCm38) using the splice-aware STAR aligner. The featureCounts program was utilized to generate counts for each gene based on how many aligned reads overlap its exons. These counts were then normalized and used to test for differential expression using negative binomial generalized linear models implemented by the DESeq2 R package."}, "H508 cells": {"system": "H508 cells", "assay": "Cell viability, colon cancer cells", "type": "cell-based", "conditions": "H508, 72 hr, Cell titer Glo", "experimental": "as §3, §4"}, "HT29 cells": {"system": "HT29 cells", "assay": "Cell viability, colon cancer cells", "type": "cell-based", "conditions": "HT29, 72 hr, Cell titer Glo", "experimental": "as §3, §4"}},
  "data": [
    {"smiles": "Cc1cccc(NC(C)c2cc(Cl)ccc2O)c1C", "note": "(centres unmarked) [MFI8, 4-Chloro-2-(1-((2,3-dimethylphenyl)amino)ethyl)phenol]", "values": [
      {"measurement": "caspase 3/7 activation in response to AMG-176", "setting": "MOLM13 cells", "result": "sensitizes cells to caspase activation"},
      {"measurement": "gene expression levels of mitochondrial biogenesis markers", "setting": "[1]", "result": "no alteration"},
      {"measurement": "cytochrome c release to the cytosol", "setting": "MEFs [2]", "result": "cytochrome c was released to the cytosol, albeit at modest levels"},
      {"measurement": "DNA damage (yH2AX)", "setting": "U2OS cells [3]; U2OS cells", "result": "induced DNA damage in U2OS cells"},
      {"measurement": "DNA damage (yH2AX)", "setting": "U2OS cells [3]; U2OS, co-treatment with pan-caspase inhibitor Q-VD-OPh", "result": "abolished the capacity of the latter to induce DNA damage"},
      {"measurement": "caspase-3/7 activation", "setting": "U2OS cells [4]", "result": "induced caspase-3/7 activation"},
      {"measurement": "apoptosis / cell death (Annexin V)", "setting": "Calu-6 cells", "result": "induces apoptosis in Calu-6 cells"},
      {"measurement": "caspase-3/7 activity", "setting": "MEFs [5]; 6 hr, Caspase-Glo 3/7", "result": "concentration-responsively increased caspase-3/7 activity"},
      {"measurement": "caspase 3/7 activity", "setting": "MEFs [5]; deletion of APAF-1", "result": "detrimental for the capacity of MFI8 to increase caspase 3/7 activity"},
      {"measurement": "caspase-3/7 activity", "setting": "MEFs [5]; deletion of MFN1/MFN2", "result": "impaired the capacity of MFI8 to increase caspase-3/7 activity"},
      {"measurement": "mitochondrial fusion", "setting": "U2OS cells [6]", "result": "inhibited mitochondrial fusion"},
      {"measurement": "cell death in combination with BV6", "setting": "U2OS cells [7]", "result": "synergistically induce cell death"},
      {"measurement": "mitochondrial membrane potential (TMRE)", "setting": "MEFs [8]; MFN1/MFN2 DKO MEFs reconstituted with L692A MFN2", "result": "not when reconstituted with L692A MFN2"},
      {"measurement": "mitochondrial membrane potential (TMRE)", "setting": "MEFs [8]; MFN1/MFN2 DKO MEFs reconstituted with WT MFN2", "result": "significantly decreased mitochondrial membrane potential"},
      {"measurement": "mitochondrial membrane potential (TMRE)", "setting": "MEFs [8]; WT MEFs, 6 hrs", "result": "concentration responsively decreased mitochondrial membrane potential"},
      {"measurement": "viability", "setting": "BXPC3 cells", "result": "concentration responsively reduces viability"},
      {"measurement": "expression of genes involved in DNA damage response", "setting": "MEFs [9]; MEFs", "result": "up-regulated several genes that are involved in DNA damage response"},
      {"measurement": "gene expression of subunits of the respiratory complexes", "setting": "MEFs [9]; RNA-seq", "result": "reduced the gene expression of several nuclear-encoded subunits of the respiratory complexes"},
      {"measurement": "viability", "setting": "H508 cells", "result": "concentration responsively reduces viability"},
      {"measurement": "viability", "setting": "HT29 cells", "result": "concentration responsively reduces viability"}
    ]}
  ]
}
